Kb and Ki data for seven compounds are collected here from patent US4876243A, “Vasopressin compounds” (Smithkline Beckman Corporation, priority 1987, dated 1989).

pKi: −log10 of the molar value. *1 amine or outer side, *2 acyl side, *3 side chain or, on linkers, in order; H or OH if unused. Where a SMILES comes first, the peptide text is derived from it. Bridges are numbered along the chain shown (N, C = ends). [ ]: non-standard residue; d: D form. X1 = O=C(CC1(S[*:2])CCCCC1)[*:1]; αMeV = CC(C)[C@](C)(N)C(=O)O; Aib = CC(C)(N)C(=O)O

The target of assay [1] is T1, V2-vasopressin receptors (Sus scrofa, UniProt P32307).
T1 construct: in the medullary tissue of hog kidneys; from tissue; host or cells: hog kidney medullary tissue
T1 sequence (P32307 whole entry): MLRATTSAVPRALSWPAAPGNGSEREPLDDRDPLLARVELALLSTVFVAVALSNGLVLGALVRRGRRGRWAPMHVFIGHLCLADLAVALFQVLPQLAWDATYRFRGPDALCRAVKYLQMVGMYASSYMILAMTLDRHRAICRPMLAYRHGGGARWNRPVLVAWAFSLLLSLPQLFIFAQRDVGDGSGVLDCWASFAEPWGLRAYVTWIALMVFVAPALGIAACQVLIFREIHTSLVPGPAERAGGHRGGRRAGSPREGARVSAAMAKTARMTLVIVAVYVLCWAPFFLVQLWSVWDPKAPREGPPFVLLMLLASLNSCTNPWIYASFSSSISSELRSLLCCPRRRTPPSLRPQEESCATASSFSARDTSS
In words: receptor binding ability measured by inhibition of 3H-LVP binding. The settings on record: read-out: Pig V2 KB. On the procedure: (§1) Antagonistic activity at the V2 -vasopressin receptors is determined in a protocol which determines in vitro activity in pig tissue or in vivo diuretic activity in the hydropenic rat (ED300 μg/kg). These procedures are described in the literature. F. Stassen et al., 1st International Conference on Diuretics, Miami, Fla., March (1984).
(§2) Antagonistic activity at the V1 -vasopressin receptors is determined in a protocol which measures the reversal of the vasopressin induced contraction of rat thoracic aorta tissue. This is expressed as KB (nM) in the table below. Such anti-pressor activity is confirmed in a similar in vitro protocol using the plasma membranes of rat liver. V2 -vasopressin antagonism is determined as receptor binding ability measured by inhibition of 3H-LVP binding (KB as nM), by inhibition of adenylate cyclase activation by vasopressin in the medullary tissue of hog kidneys (Ki as nM) or in vivo in the […] rat protocol (ED300 μg/kg). These procedures are described in the literature: F. Stassen et al., J. Pharmacology and Experimental Therapeutics, 223 50 (1982).

In assay [2] the target is T1, V2-vasopressin receptors. In words: inhibition of adenylate cyclase activation by vasopressin in the medullary tissue of hog kidneys. Format: biochemical. The settings on record: hog kidney medullary tissue, vasopressin-activated adenylate cyclase; read-out: Pig V2 Ki. On the procedure:
as §1
as §2, with “Such anti-pressor activity is confirmed in a similar in vitro protocol using the plasma membranes of rat liver.” left out

Assay [3] deals with T2, V1-vasopressin receptors (Rattus norvegicus, UniProt P30560).
T2 construct: vasopressin induced contraction of rat thoracic aorta tissue; from tissue; host or cells: rat thoracic aorta tissue
T2 sequence (P30560 whole entry): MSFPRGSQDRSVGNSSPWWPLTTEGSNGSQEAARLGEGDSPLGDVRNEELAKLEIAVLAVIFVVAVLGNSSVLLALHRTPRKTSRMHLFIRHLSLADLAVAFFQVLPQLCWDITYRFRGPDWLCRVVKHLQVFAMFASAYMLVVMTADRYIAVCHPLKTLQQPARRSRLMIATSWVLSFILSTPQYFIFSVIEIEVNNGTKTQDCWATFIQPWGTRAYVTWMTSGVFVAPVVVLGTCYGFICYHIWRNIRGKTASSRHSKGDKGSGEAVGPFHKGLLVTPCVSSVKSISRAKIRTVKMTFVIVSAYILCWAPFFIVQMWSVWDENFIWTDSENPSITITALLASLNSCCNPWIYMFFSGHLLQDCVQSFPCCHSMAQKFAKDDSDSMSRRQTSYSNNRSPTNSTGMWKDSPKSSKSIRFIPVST
In words: reversal of the vasopressin induced contraction of rat thoracic aorta tissue. On the procedure: as §2

`CCOc1ccc(C[C@H]2NC(=O)CC3(CCCCC3)SSC[C@@H](C(=O)N3CCC[C@H]3C(=O)N[C@@H](CCCNC(=N)N)C(N)=O)NC(=O)[C@H](CC(N)=O)NC(=O)C(C)(C)NC(=O)[C@H](Cc3ccccc3)NC2=O)cc1` [B, [1-(β,β-cyclopentamethylene-β-mercaptopropionic acid)-2-(O-ethyl-D-tyrosine)-4-α-aminoisobutyric acid-8-arginine-9-desglycine]vasopressin] ([dY](Et)F[Aib]NCPR-NH2; linker N-5 via X1): the Kb in assay [1] is 580 nM. The pKi in assay [2] was 6.85.

As to `COc1ccc(C[C@@H]2NC(=O)CC3(CCCCC3)SSC[C@@H](C(=O)N3CCC[C@H]3C(=O)N[C@@H](CCCN=C(N)N)C(=O)NCC(N)=O)NC(=O)[C@H](CC(N)=O)NC(=O)[C@H](C(C)C)NC(=O)[C@H](Cc3ccccc3)NC2=O)cc1` [F, [1-(β,β-cyclopentamethylene-β-mercaptopropionic acid)-2-(O-methyl-L-tyrosine)-4-valine-8-arginine]vasopressin, reference compound] (Y(Me)FVNCPRG-NH2; linker N-5 via X1), the Kb in assay [1] is 35 nM; in assay [3], 12 nM. Further, the pKi in assay [2] is 7.06.

Consider `CCOc1ccc(C[C@H]2NC(=O)CC3(CCCCC3)SSC[C@@H](C(=O)NC(C)(C)C(=O)N[C@@H](CCCNC(=N)N)C(=O)NCC(N)=O)NC(=O)[C@H](CC(N)=O)NC(=O)[C@H](C(C)C)NC(=O)[C@H](Cc3ccccc3)NC2=O)cc1` [A, [1-(β,β-cyclopentamethylene-β-mercaptopropionic acid)-2-(O-ethyl-D-tyrosine)-4-valine-7-α-aminoisobutyric acid-8-arginine]vasopressin] ([dY](Et)FVNC[Aib]RG-NH2; linker N-5 via X1), for which, in assay [1], the Kb amounted to 9.2 nM. Moreover, the pKi in assay [2] was 7.74.

For `CCOc1ccc(C[C@H]2NC(=O)CC3(CCCCC3)SSC[C@@H](C(=O)N3CCC[C@H]3C(=O)N[C@@H](CCCNC(=N)N)C(=O)NCC(N)=O)NC(=O)[C@H](CC(N)=O)NC(=O)[C@](C)(C(C)C)NC(=O)[C@H](Cc3ccccc3)NC2=O)cc1` [C, [1-(β,β-cyclopentamethylene-β-mercaptopropionic acid)-2-(O-ethyl-D-tyrosine)-4-α-methylvaline-8-arginine]vasopressin] ([dY](Et)F[αMeV]NCPRG-NH2; linker N-5 via X1), the Kb in assay [1] is 11 nM. Besides, the pKi in assay [2] was 7.51.

With `COc1ccc(C[C@@H]2NC(=O)CC3(CCCCC3)SSC[C@@H](C(=O)N3CCC[C@H]3C(=O)N[C@@H](CCCNC(=N)N)C(=O)NCC(N)=O)NC(=O)[C@H](CC(N)=O)NC(=O)[C@](C)(C(C)C)NC(=O)[C@H](Cc3ccccc3)NC2=O)cc1` [D, [1-(β,β-cyclopentamethylene-β-mercaptopropionic acid)-2-(O-methyl L-tyrosine)-4-α-methylvaline-8-arginine]vasopressin] (Y(Me)F[αMeV]NCPRG-NH2; linker N-5 via X1), the values for the Kb in assay [1] and in assay [3] were 170 nM and 18 nM, respectively. Moreover, the pKi in assay [2] was 6.31.

Regarding `CCOc1ccc(C[C@H]2NC(=O)CC3(CCCCC3)SSC[C@@H](C(=O)N3CCC[C@H]3C(=O)N[C@@H](CCCN=C(N)N)C(=O)NCC(N)=O)NC(=O)[C@H](CC(N)=O)NC(=O)[C@H](C(C)C)NC(=O)[C@H](Cc3ccccc3)NC2=O)cc1` [G, [1-(β,β-cyclopentamethylene-β-mercaptopropionic acid)-2-(O-ethyl-D-tyrosine)-4-valine-8-arginine]vasopressin, reference compound] ([dY](Et)FVNCPRG-NH2; linker N-5 via X1), the Kb came out at 6.7 nM in assay [1] and 1.4 nM in assay [3].

For `CCOc1ccc(C[C@H]2NC(=O)CC3(CCCCC3)SSC[C@@H](C(=O)NC(C)(C)C(=O)N[C@@H](CCCNC(=N)N)C(N)=O)NC(=O)[C@H](CC(N)=O)NC(=O)[C@H](C(C)C)NC(=O)[C@H](Cc3ccccc3)NC2=O)cc1` [E, [1-(β,β-cyclopentamethylene-β-mercaptopropionic acid)-2-(O-ethyl-D-tyrosine)-4-valine-7-α-aminoisobutyric acid-8-arginine-9-desglycine]vasopressin] ([dY](Et)FVNC[Aib]R-NH2; linker N-5 via X1), the Kb in assay [1] was 15 nM. For the same compound, the pKi in assay [2] is 7.80.
